Here are results for 11 molecules from PubChem BioAssay AID1259408 (Genetic Toxicology Data Bank (GENE-TOX), 2018).

The structures appear in SMILES notation. Active and inactive are the calls of the source. No rule for the calls is given here.

The data set concerns GENE-TOX genotoxicity assays, various organisms and cells. Briefly: GENE-TOX mutagenicity studies.
Setting [1] is: Species/Cell Type: Salmonella typhimurium (one or more of the five standard strains: TA98, TA100, TA1535, TA1537, and TA1538), Assay Type: Histidine reverse gene mutation, Ames assay, Assay Code: SALT, Evaluation Type: Evaluation A (Pre-1980).

Take `CON`: the mutagenic call was “no conclusion” (Species/Cell Type: Drosophila melanogaster, Assay Type: Sex-linked recessive lethal gene mutation, Assay Code: SRLT, Evaluation Type: Evaluation A (Pre-1980)); “no conclusion” (Species/Cell Type: Drosophila melanogaster, Sex: Male, Assay Type: Heritable translocation test, chromosome aberrations, Assay Code: DHTT, Evaluation Type: Evaluation A (Pre-1980)); “active; positive” (Species/Cell Type: Neurospora crassa, Assay Type: Reverse gene mutation, Assay Code: NER+, Evaluation Type: Evaluation A (Pre-1980)); “active; positive” (Species/Cell Type: Saccharomyces cerevisiae, Assay Type: Mitotic recombination or gene conversion, Assay Code: YEH+, Evaluation Type: Evaluation A (Pre-1980)).

`CC(=O)Nc1nc(-c2csc(NC(C)=O)n2)cs1`: under setting [1], the mutagenic call is recorded as “no conclusion”.

For `O=C(COc1ccc(Br)cc1CN1CCCCC1)N/N=C\c1ccccc1`, the mutagenic call (Species/Cell Type: Saccharomyces cerevisiae, Assay Type: Reverse gene mutation, Assay Code: YERT, Evaluation Type: Evaluation A (Pre-1980)) was “no conclusion”.

Turning to `CNc1ccc(Cl)cc1C(=O)c1ccccc1`, the mutagenic call under setting [1] is recorded as “no conclusion”.

With `CCN(CC)c1ccc2c(-c3ccc(C(=O)O)cc3C(=O)[O-])c3ccc(=[N+](CC)CC)cc-3oc2c1`, the mutagenic call by setting is: (Species/Cell Type: Mammalian polychromatic erythrocytes, Assay Type: Micronucleus test, chromosome aberrations, Assay Code: MNT-, Evaluation Type: Evaluation B (Post-1980)) “inactive; negative”; (Species/Cell Type: Nonhuman, Assay Type: Sister-chromatid exchange (SCE) in vitro, Assay Code: SC2+D, Dose Response: With dose response, Evaluation Type: Evaluation B (Post-1980)) “active; positive”.

As for `CC[N+](C)(CC)CCC[n+]1c(-c2ccccc2)c2cc(N)ccc2c2ccc(N)cc21`, where the note is “Species/Cell Type: Mammalian cell culture, nonhuman, Assay Type: Micronucleus test in vitro, chromosome aberrations, Assay Code: MN&+, Evaluation Type: Evaluation A (Pre-1980)”, the mutagenic call was “active; positive”.

For the molecule `Cc1csc(NNC=O)n1`, the mutagenic call reads like this: (Species/Cell Type: Escherichia coli WP2, Assay Type: Tryptophan reverse gene mutation, Assay Code: WP2-, Evaluation Type: Evaluation A (Pre-1980)) “inactive; negative”; (Species/Cell Type: Escherichia coli WP2 UVRA, Assay Type: Tryptophan reverse gene mutation, Assay Code: WPU-, Evaluation Type: Evaluation A (Pre-1980)) “inactive; negative”.

Consider `Cn1ccc(CO)c1CO`, for which, where the note is “Species/Cell Type: Human lymphocytes, Assay Type: Sister-chromatid exchange (SCE) in vitro, Assay Code: SCL+D, Dose Response: With dose response, Evaluation Type: Evaluation B (Post-1980)”, the mutagenic call is “active; positive”.

As to `FC(F)Cl`, for the setting “Species/Cell Type: Tradescantia species, Assay Type: Gene mutation, Assay Code: TRM+D, Dose Response: With dose response, Evaluation Type: Evaluation A (Pre-1980)”, the mutagenic call was “active; positive”.

As for `O=C1CCC(N2C(=O)c3ccccc3C2=O)C(=O)N1` (configuration not stated), the mutagenic call by setting is: (Species/Cell Type: Allium cepa, Assay Type: Chromosome aberrations, Assay Code: ALC+, Evaluation Type: Evaluation A (Pre-1980)) “active; positive”; (Species/Cell Type: Drosophila melanogaster, Assay Type: Aneuploidy, partial sex chromosome loss, chromosome aberrations, Assay Code: DAP-M, Evaluation Type: Evaluation A (Pre-1980)) “inactive; negative”; (Species/Cell Type: Drosophila melanogaster, Assay Type: Aneuploidy, sex chromosome gain, chromosome aberrations, Assay Code: DAG-M, Evaluation Type: Evaluation A (Pre-1980)) “inactive; negative”; (Species/Cell Type: Drosophila melanogaster, Assay Type: Aneuploidy, whole sex chromosome loss, chromosome aberrations, Assay Code: DAC-M, Evaluation Type: Evaluation A (Pre-1980)) “inactive; negative”; (Species/Cell Type: Mouse, Sex: Male, Assay Type: Sperm morphology, Assay Code: SPI-, Evaluation Type: Evaluation A (Pre-1980)) “inactive; negative”; (Species/Cell Type: Salmonella typhimurium, Assay Type: Forward and reverse gene mutation, host-mediated assay, Assay Code: HMA-, Evaluation Type: Evaluation A (Pre-1980)) “inactive; negative”. Also, the mutagenic call (Species/Cell Type: Vicia faba, Assay Type: Chromosome aberrations, Assay Code: VIC+, Evaluation Type: Evaluation A (Pre-1980)) is “active; positive”.

Take `CC(=O)[O-].CC(=O)[O-].CC(=O)[O-].[Sb+3]`: the mutagenic call (Species/Cell Type: Syrian hamster embryo (SA7/SHE) cells, Assay Type: Cell transformation, viral enhanced, Assay Code: CT7+, Evaluation Type: Evaluation A (Pre-1980)) was “active; positive”.
